Laboratory results published in patent US7659244B2, “Rapamycin peptides conjugates: synthesis and uses thereof” (Quest Pharmatech, Inc., priority 2004, dated 2010).
Where a name gives a salt, the structure may show the parent alone. Read-outs that look alike come from different tables or passages of the source.

Columns and labels:
SK-N-SH [1] = test system: SK-N-SH
Protocol: (§1) Quantification of cell proliferation and cell viability was determined by measuring the amount of radioactive [^3H-methyl]-thymidine incorporated into DNA.
(§2) Cell culture: For each cell line, culture was carried according to the ATCC Product Information Sheet provided. Cell lines were always freshly thawed prior to each experiment. For all experiments exponentially growing cells were harvested and centrifuged at 1100 rpm, the spent medium was aspirated and cell pellets were resuspended in fresh complete medium. Viable cells were enumerated by trypan blue exclusion using a hemacytometer.
(§3) Cells were then seeded in 96 well tissue culture plates in a total volume of 100 μL/well. A preliminary experiment should be performed to determine the most appropriate cell density for each individual cell line. Cells were allowed to attach and acclimate overnight.
(§4) Addition of test compounds: Each test compound was dissolved in DMSO at a final concentration of 2 mM. Each stock compound was then diluted in complete medium (1:100) to obtain a 20 μM working solution. The working solution was used for further serial dilutions to obtain concentrations of 200 nM, 20 nM, 2 nM, 0.2 nM and 0.02 nM. 100 μL of each dilution was added to the 100 μL cell cultures (3 replicates),. to give final test concentrations of 100 nM, 10 nM, 1 nM, 0.1 nM and 0.01 nM. Using this system of dilutions, the maximum concentration of DMSO to which the cells were exposed was 0.01% v/v. Therefore, 0.01% DMSO was added to control cells to which no test compounds was added. On each plate two positive controls were included: Adriamycin Hydrochloride and Rapamycin. For each positive control 3 concentrations were chosen in a range that achieved an LC50, this range is cell line specific and must be predetermined in a pilot experiment. Plates were incubated for 96 hours prior to harvesting. [^3H-methyl]-thymidine incorporation: After 80 hours incubation, 10 μL (0.5 μCi) of [^3H-methyl]-thymidine diluted in 1× HBSS was added and plates were incubated overnight.
(§5) Growth medium was removed from each well and 100 uL of Trypsin-EDTA was added. The plate was incubated at 37° C. until cells were trypsinized (check under microscope). The detached cells were harvested using a semiautomatic cell harvester. Filters were dried prior to addition to scintillation vials. two mL of scintillation fluid was automatically dispensed into each vial and counting was effected on program 1 (^3H, 1 min, DPM).
(§6) The average and standard error from the DPM counts of replicate samples were calculated.

A431 [2] = test system: A431
Protocol: as §1, §2, §3, §4, §5, §6

Lncap [3] = test system: Lncap
Protocol: as §1, §2, §3, §4, §5, §6

MCF-7 [4] = test system: MCF-7
Protocol: as §1, §2, §3, §4, §5, §6

OVCAR-3 [5] = test system: OVCAR-3
Protocol: as §1, §2, §3, §4, §5, §6

LS174T [6] = test system: LS174T
Protocol: as §1, §2, §3, §4, §5, §6

SKOV-3 [7] = test system: SKOV-3
Protocol: as §1, §2, §3, §4, §5, §6

D341 [8] = test system: D341
Protocol: as §1, §2, §3, §4, §5, §6

SKMEL-2 [9] = test system: SKMEL-2
Protocol: as §1, §2, §3, §4, §5, §6

D341 [10] = test: cells; conditions: Homo sapiens, D341, 96 h, read-out: Inhibition of H^3 Thymidine uptake (IC50 in nM)
Protocol: as §1, §2, §3, §4, §5, §6

OVCAR-3 [11] = test: cells; conditions: Homo sapiens, OVCAR-3, 96 h, read-out: Inhibition of H^3 Thymidine uptake (IC50 in nM)
Protocol: as §1, §2, §3, §4, §5, §6

SK-N-SH [12] = test: cells; conditions: Homo sapiens, 96 h, read-out: Inhibition of H^3 Thymidine uptake (IC50 in nM)
Protocol: as §1, §2, §3, §4, §5, §6

SKMEL-2 [13] = test: cells; conditions: Homo sapiens, SK-MEL-2, 96 h, read-out: Inhibition of H^3 Thymidine uptake (IC50 in nM)
Protocol: as §1, §2, §3, §4, §5, §6

Lncap [14] = test: cells; conditions: Homo sapiens, 96 h, read-out: Inhibition of H^3 Thymidine uptake (IC50 in nM)
Protocol: as §1, §2, §3, §4, §5, §6

MCF-7 [15] = test: cells; conditions: Homo sapiens, MCF7, 96 h, read-out: Inhibition of H^3 Thymidine uptake (IC50 in nM)
Protocol: as §1, §2, §3, §4, §5, §6

SKOV-3 [16] = test: cells; conditions: Homo sapiens, SK-OV-3, 96 h, read-out: Inhibition of H^3 Thymidine uptake (IC50 in nM)
Protocol: as §1, §2, §3, §4, §5, §6

LS174T [17] = test: cells; conditions: Homo sapiens, 96 h, read-out: Inhibition of H^3 Thymidine uptake (IC50 in nM)
Protocol: as §1, §2, §3, §4, §5, §6

A431 [18] = test: cells; conditions: Homo sapiens, A-431, 96 h, read-out: Inhibition of H^3 Thymidine uptake (IC50 in nM)
Protocol: as §1, §2, §3, §4, §5, §6

various cell lines = conditions: in vitro; cited from earlier work
[19] = read-out: Inhibition of H^3 Thymidine uptake (IC50 in nM), SK-N-SH cells, 96 hours incubation
[20] = read-out: Inhibition of H^3 Thymidine uptake (IC50 in nM), A431 cells, 96 hours incubation
[21] = read-out: Inhibition of H^3 Thymidine uptake (IC50 in nM), Lncap cells, 96 hours incubation
[22] = read-out: Inhibition of H^3 Thymidine uptake (IC50 in nM), MCF-7 cells, 96 hours incubation
[23] = read-out: Inhibition of H^3 Thymidine uptake (IC50 in nM), OVCAR-3 cells, 96 hours incubation
[24] = read-out: Inhibition of H^3 Thymidine uptake (IC50 in nM), LS174T cells, 96 hours incubation
[25] = read-out: Inhibition of H^3 Thymidine uptake (IC50 in nM), SKOV-3 cells, 96 hours incubation
[26] = read-out: Inhibition of H^3 Thymidine uptake (IC50 in nM), D341 cells, 96 hours incubation
[27] = read-out: Inhibition of H^3 Thymidine uptake (IC50 in nM), SKMEL-2 cells, 96 hours incubation

Row | SMILES | IC50 (SK-N-SH [1]; [19]) [nM] | IC50 (A431 [2]; [20]) [nM] | IC50 (Lncap [3]; [21]) [nM] | IC50 (MCF-7 [4]; [22]) [nM] | IC50 (OVCAR-3 [5]; [23]) [nM] | IC50 (LS174T [6]; [24]) [nM] | IC50 (SKOV-3 [7]; [25]) [nM] | IC50 (D341 [8]; [26]) [nM] | IC50 (SKMEL-2 [9]; [27]) [nM] | further results
1 | CCC(C)C(CO)NC(=O)O[C@@H]1CC[C@@H](C[C@@H](C)[C@@H]2CC(=O)[C@H](C)/C=C(\C)[C@@H](O)[C@@H](OC)C(=O)[C@H](C)C[C@H](C)/C=C/C=C/C=C(\C)[C@@H](OC)C[C@@H]3CC[C@@H](C)[C@@](O)(O3)C(=O)C(=O)N3CCCC[C@H]3C(=O)O2)C[C@H]1OC (stereo partly shown) [Compound 7m, Rapamycin-42-O-ester-2-amino-3-methyl-1-pentanol] | 56.7 | 626 | 136 | 31.3 | 488 | 664 | 69.1 | 86.8 | 147 | –
2 | CO[C@H]1C[C@@H]2CC[C@@H](C)[C@@](O)(O2)C(=O)C(=O)N2CCCC[C@H]2C(=O)O[C@H]([C@H](C)C[C@@H]2CC[C@@H](OC(=O)N[C@H](CO)[C@@H](C)O)[C@H](OC)C2)CC(=O)[C@H](C)/C=C(\C)[C@@H](O)[C@@H](OC)C(=O)[C@H](C)C[C@H](C)/C=C/C=C/C=C/1C [Compound 7r, Rapamycin-42-O-ester-(2R,3R)-2-amino-1,3-butanediol] | 4.84 | 191 | 21.8 | 1.86 | 47.2 | 1410 | 6.44 | 5.5 | 8.32 | –
3 | CO[C@H]1C[C@@H]2CC[C@@H](C)[C@@](O)(O2)C(=O)C(=O)N2CCCC[C@H]2C(=O)O[C@H]([C@H](C)C[C@@H]2CC[C@@H](O)[C@H](OC)C2)CC(=O)[C@H](C)/C=C(\C)[C@@H](O)[C@@H](OC)C(=O)[C@H](C)C[C@H](C)/C=C/C=C/C=C/1C [Compound 5, Rapamycin] | – | – | – | – | – | – | – | – | – | IC50 (D341 [10]): 1.56 nM; IC50 (OVCAR-3 [11]): 44.5 nM; IC50 (SK-N-SH [12]): 1.33 nM; IC50 (SKMEL-2 [13]): 1.12 nM; IC50 (Lncap [14]): 30.3 nM; IC50 (MCF-7 [15]): 0.408 nM; IC50 (SKOV-3 [16]): 0.392 nM; IC50 (LS174T [17]): 980 nM; IC50 (A431 [18]): 341 nM
4 | COC1CC2CCC(C)C(O)(O2)C(=O)C(=O)N2CCCCC2C(=O)OC(C(C)CC2CCC(OC(=O)NC(CO)CC(C)C)C(OC)C2)CC(=O)C(C)C=C(C)C(O)C(OC)C(=O)C(C)CC(C)C=CC=CC=C1C [Compound 7t, Rapamycin-42-O-ester-(S)-(+)-2-amino-4-methyl pentanol] | 99.3 | 278 | 202 | 53.3 | 367 | 24000 | 64.1 | 61.2 | 73.2 | –
5 | CO[C@H]1C[C@@H]2CC[C@@H](C)[C@@](O)(O2)C(=O)C(=O)N2CCCC[C@H]2C(=O)O[C@H]([C@H](C)C[C@@H]2CC[C@@H](OC(=O)NCC(O)CO)[C@H](OC)C2)CC(=O)[C@H](C)/C=C(\C)[C@@H](O)[C@@H](OC)C(=O)[C@H](C)C[C@H](C)/C=C/C=C/C=C/1C (stereo partly shown) [Compound 7n, Rapamycin-42-O-ester-3-amino-1,2-propanediol] | 7.27 | 314 | 42.7 | 2.53 | 71.9 | 55100 | 7.96 | 14.7 | 11.7 | –
6 | COc1cccc2c1C(=O)c1c(O)c3c(c(O)c1C2=O)C[C@@](O)(C(=O)CO)C[C@@H]3O[C@H]1C[C@H](N)[C@H](O)[C@H](C)O1 [Adriamycin, Adriamycin Hydrochloride] | – | – | – | – | – | – | – | – | – | IC50 (D341 [10]): 7.02 nM; IC50 (OVCAR-3 [11]): 4.77 nM; IC50 (SK-N-SH [12]): 0.896 nM; IC50 (SKMEL-2 [13]): 1.93 nM; IC50 (Lncap [14]): 2.54 nM; IC50 (MCF-7 [15]): 3.11 nM; IC50 (SKOV-3 [16]): 130 nM; IC50 (LS174T [17]): 4.04 nM; IC50 (A431 [18]): 50.4 nM
7 | CO[C@H]1C[C@@H]2CC[C@@H](C)[C@@](O)(O2)C(=O)C(=O)N2CCCC[C@H]2C(=O)O[C@H]([C@H](C)C[C@@H]2CC[C@@H](OC(=O)N[C@@H](CO)[C@@H](O)c3ccccc3)[C@H](OC)C2)CC(=O)[C@H](C)/C=C(\C)[C@@H](O)[C@@H](OC)C(=O)[C@H](C)C[C@H](C)/C=C/C=C/C=C/1C [Compound 7l, Rapamycin-42-O-ester-(1S,2S)-(+)-2-amino-1-phenyl-1,3-propandiol] | 15.6 | 217 | 64.6 | 6.35 | 113 | 23500 | 17.1 | 27.6 | 29.1 | –
8 | CC[C@H](C)[C@H](NC(=O)O[C@@H]1CC[C@@H](C[C@@H](C)[C@@H]2CC(=O)[C@H](C)/C=C(\C)[C@@H](O)[C@@H](OC)C(=O)[C@H](C)C[C@H](C)/C=C/C=C/C=C(\C)[C@@H](OC)C[C@@H]3CC[C@@H](C)[C@@](O)(O3)C(=O)C(=O)N3CCCC[C@H]3C(=O)O2)C[C@H]1OC)C(=O)N[C@H](CO)Cc1ccccc1 [Compound 7b, Rapamycin-42-O-ester-(NH-L-Ile-S-Phe-CH2OH)] | – | – | – | – | – | – | – | – | – | IC50 (SK-N-SH [1]; 96 h): 144 nM; IC50 (A431 [2]; 96 h): 1840 nM; IC50 (Lncap [3]; 96 h): 309 nM; IC50 (MCF-7 [4]; 96 h): 53.3 nM; IC50 (OVCAR-3 [5]; 96 h): 424 nM; IC50 (LS174T [6]; 96 h): 1480 nM; IC50 (SKOV-3 [7]; 96 h): 136 nM; IC50 (D341 [8]; 96 h): 182 nM; IC50 (SKMEL-2 [9]; 96 h): 326 nM
9 | CO[C@H]1C[C@@H]2CC[C@@H](C)[C@@](O)(O2)C(=O)C(=O)N2CCCC[C@H]2C(=O)O[C@H]([C@H](C)C[C@@H]2CC[C@@H](OC(=O)N[C@@H](CO)[C@H](C)O)[C@H](OC)C2)CC(=O)[C@H](C)/C=C(\C)[C@@H](O)[C@@H](OC)C(=O)[C@H](C)C[C@H](C)/C=C/C=C/C=C/1C [Compound 7q, Rapamycin-42-O-ester-(2S,3S)-2-amino-1,3-butanediol] | 5.25 | 313 | 17.4 | 1.29 | 56.5 | 1630 | 6.35 | 25.2 | 9.15 | –
10 | CO[C@H]1C[C@@H]2CC[C@@H](C)[C@@](O)(O2)C(=O)C(=O)N2CCCC[C@H]2C(=O)O[C@H]([C@H](C)C[C@@H]2CC[C@@H](OC(=O)C(C)(CO)CO)[C@H](OC)C2)CC(=O)[C@H](C)/C=C(\C)[C@@H](O)[C@@H](OC)C(=O)[C@H](C)C[C@H](C)/C=C/C=C/C=C/1C [CCI-779] | – | – | – | – | – | – | – | – | – | IC50 (various cell lines): < 10 nM
